Laboratory results published in US5549903A, “Microencapsulated composition containing chlorpyrifos or endosulfsan” (priority 1994, dated 1996).

Columns and labels:
[1] = Stability of unprotected chlorpyrifos to UV/visible light; type: physicochemical; conditions: 68 hours
Description: Unprotected chlorpyrifos was irradiated by an ultraviolet/visible light lamp for 68 hours. The stability versus the wavelength of the light is summarized as follows: […]

rats = conditions: technical chlorpyrifos; cited from earlier work
honey bees [2] = conditions: technical chlorpyrifos, comparison value; cited from earlier work
honey bees [3] = conditions: technical chlorpyrifos, comparison value; cited from earlier work; remark: listed apart in the source
mice = conditions: technical material; cited from earlier work
[4] = Stability of endosulfan to irradiation; type: physicochemical; conditions: 100 hours at 310±5 nanometers and 475± nanometers
Description: Details of the stability of chlorpyrifos are listed in Example 2.

Row | SMILES | Extent of Degradation ([1]; 313 ± 5 nm) | Extent of Degradation ([1]; 365 ± 5 nm) | Extent of Degradation ([1]; 404 ± 5 nm) | Extent of Degradation ([1]; 436 ± 5 nm) | LD50 (acute oral) (rats) | LD50 contact (honey bees [2]) | LD50 oral (honey bees [3]) | LD50 (mice) | decomposition after irradiation [4]
1 | CCOP(=S)(OCC)Oc1nc(Cl)c(Cl)cc1Cl [chlorpyrifos, O,O-diethyl-O-(3,5,6-trichloro-2-pyridyl)-phosphorathio-ate] | Total degradation | Low degradation | Low degradation | Medium degradation | 168 mg/kg | 0.059 μ/bee | 0.25 μg/bee |  | 
2 | O=S1OCC2C(CO1)C1(Cl)C(Cl)=C(Cl)C2(Cl)C1(Cl)Cl (stereo not drawn) [endosulfan, 6,7,8,9,10-hexachloro-1,5-5a,9a tetryhydro-6,9-methano-2,4,3-benzodioxathipia-3-oxide] |  |  |  |  |  |  |  | 30 mg/kg | decomposed
